This experiment has as its system A673 cells. The experiment can be described thus: Dose-response cell proliferation assay in A673 cells (crystal violet). It is filed as cell-based. As to conditions: Homo sapiens, A673 cells, 10,000 cells per well, 72 h treatment. On the procedure:
Small molecule splicing modulators were tested in a dose-response assay using A673 cells. A673 cells were first plated in 96-well plastic tissue culture plates (10,000 cells per well). The cells were treated with vehicle alone (DMSO), or increasing concentrations of SMSM compounds for 72 h. Following treatment, cell proliferation was determined using a crystal violet assay. The relative cell proliferation at each concentration was determined.
Compound `CNC(=O)/C=C/c1cc(O)c(-c2ccc(N3C[C@H]4CNC[C@H]4C3)nn2)cc1F` [SMSM 1, (E)-3-(2-fluoro-4-(6-((3aR,6aS)-hexahydropyrrolo[3,4-c]pyrrol-2(1H)-yl)pyridazin-3-yl)-5-hydroxyphenyl)-N-methylacrylamide] gave an IC50 of 0.091 µM. As to `CNC(=O)/C=C/c1ccc(-c2ccc(N3C[C@H]4CNC[C@H]4C3)nn2)c(O)c1` [SMSM 2, (E)-3-(4-(6-((3aR,6aS)-hexahydropyrrolo[3,4-c]pyrrol-2(1H)-yl)pyridazin-3-yl)-3-hydroxyphenyl)-N-methylacrylamide], inhibition was half-maximal at 0.009 µM (IC50). Against the preceding compound, the IC50 is about 10-fold lower. For `CNC(=O)/C=C/c1ccc(-c2ccc(N(C)[C@@H]3C[C@H]4CC[C@@H](C3)N4)nn2)c(O)c1` [SMSM 3, (E)-3-(4-(6-(((1R,3s,5S)-8-azabicyclo[3.2.1]octan-3-yl)(methyl)amino)pyridazin-3-yl)-3-hydroxyphenyl)-N-methylacrylamide] the value was 0.0083 µM.

`CNC(=O)/C=C/c1ccc(-c2ccc(O[C@@H]3C[C@H]4CC[C@@H](C3)N4)nn2)c(O)c1` [SMSM 4, (E)-3-(4-(6-(((1R,3s,5S)-8-azabicyclo[3.2.1]octan-3-yl)oxy)pyridazin-3-yl)-3-hydroxyphenyl)-N-methylacrylamide] returned an IC50 of 0.007 µM. With `CN(C(=O)/C=C/c1ccc(-c2ccc(N(C)[C@@H]3C[C@H]4CCC[C@@H](C3)N4)nn2)c(O)c1)C1CC1` [SMSM 5, (E)-3-(4-(6-(((1R,3s,5S)-9-azabicyclo[3.3.1]nonan-3-yl)(methyl)amino)pyridazin-3-yl)-3-hydroxyphenyl)-N-cyclopropyl-N-methylacrylamide], the IC50 came out at 0.554 µM. As to `CNC(=O)/C=C/c1ccc(-c2ccc(N(C)[C@@H]3C[C@H]4CCC[C@@H](C3)N4)nn2)c(O)c1` [SMSM 6, (E)-3-(4-(6-(((1R,3s,5S)-9-azabicyclo[3.3.1]nonan-3-yl)(methyl)amino)pyridazin-3-yl)-3-hydroxyphenyl)-N-methylacrylamide], the IC50 worked out at 3.12 µM. With `CN(C)C(=O)/C=C/c1ccc(-c2ccc(N(C)[C@@H]3C[C@H]4CCC[C@@H](C3)N4)nn2)c(O)c1` [SMSM 7, (E)-3-(4-(6-(((1R,3s,5S)-9-azabicyclo[3.3.1]nonan-3-yl)(methyl)amino)pyridazin-3-yl)-3-hydroxyphenyl)-N,N-dimethylacrylamide] the figure was 0.0037 µM; with `CNC(=O)/C=C/c1cc(O)c(-c2ccc(N(C)[C@@H]3C[C@H]4CCC[C@@H](C3)N4)nn2)cc1F` [SMSM 8, (E)-3-(4-(6-(((1R,3s,5S)-9-azabicyclo[3.3.1]nonan-3-yl)(methyl)amino)pyridazin-3-yl)-2-fluoro-5-hydroxyphenyl)-N-methylacrylamide], 0.02 µM. Consider `CNC(=O)/C=C/c1cc(O)c(-c2ccc(N(C)[C@H]3C[C@]4(C)CC[C@](C)(C3)N4)nn2)cc1F` [SMSM 9], for which the IC50 came to 1.95 µM.

`CNC(=O)/C=C/c1ccc(-c2ccc(N(C)[C@H]3C[C@]4(C)CC[C@](C)(C3)N4)nn2)c(O)c1` [SMSM 10, (E)-3-(4-(6-(((1R,3s,5S)-1,5-dimethyl-8-azabicyclo[3.2.1]octan-3-yl)(methyl)amino)pyridazin-3-yl)-3-hydroxyphenyl)-N-methylacrylamide]: it took 1.58 µM to reach half-maximal inhibition (IC50). Regarding `CNC(=O)/C=C/c1cc(O)c(-c2ccc(N(C3CC3)[C@H]3C[C@]4(C)CC[C@](C)(C3)N4)nn2)cc1F` [SMSM 11, (E)-3-(4-(6-(cyclopropyl((1R,3s,5 S)-1,5-dimethyl-8-azabicyclo[3.2.1]octan-3-yl)amino)pyridazin-3-yl)-2-fluoro-5-hydroxyphenyl)-N-methylacrylamide], the IC50 came out at 1.39 µM.

Regarding `CN(c1ccc(-c2ccc(/C=C/c3nnn[nH]3)cc2O)nn1)[C@H]1C[C@]2(C)CC[C@](C)(C1)N2` [SMSM 12, 5-((E)-2-(1H-tetrazol-5-yl)vinyl)-2-(6-(((1R,3s,5S)-1,5-dimethyl-8-azabicyclo[3.2.1]octan-3-yl)(methyl)amino)pyridazin-3-yl)phenol], the IC50 is > 1 µM. Turning to `CNC(=O)/C=C/c1cc(O)c(-c2ccc(N(C3CC3)[C@H]3C[C@]4(C)CCC[C@](C)(C3)N4)nn2)cc1F` [SMSM 13, (E)-3-(4-(6-(cyclopropyl((lR,3s,5 S)-1,5-dimethyl-9-azabicyclo[3.3.1]nonan-3-yl)amino)pyridazin-3-yl)-2-fluoro-5-hydroxyphenyl)-N-methylacrylamide], the IC50 was > 1 µM. `CNC(=O)/C=C/c1ccc(-c2ccc(N(C)[C@H]3C[C@]4(C)CCC[C@](C)(C3)N4)nn2)c(O)c1` [SMSM 14, (E)-3-(4-(6-(((1R,3s,5S)-1,5-dimethyl-9-azabicyclo[3.3.1]nonan-3-yl)(methyl)amino)pyridazin-3-yl)-3-hydroxyphenyl)-N-methylacrylamide] had an IC50 of 0.0016 µM.

`CNC(=O)/C=C/c1cc(O)c(-c2ccc(N(C)[C@H]3C[C@]4(C)CCC[C@](C)(C3)N4)nn2)cc1F` [SMSM 15, (E)-3-(4-(6-(((1R,3s,5S)-1,5-dimethyl-9-azabicyclo[3.3.1]nonan-3-yl)(methyl)amino)pyridazin-3-yl)-2-fluoro-5-hydroxyphenyl)-N-methylacrylamide] had an IC50 of 0.0007 µM. For the compound `CNC(=O)/C=C/c1ccc(-c2ccc(N(C)C3CC(C)(C)NC(C)(C)C3)nn2)c(O)c1` [SMSM 16, (E)-3-(3-hydroxy-4-(6-(methyl(2,2,6,6-tetramethylpiperidin-4-yl)amino)pyridazin-3-yl)phenyl)-N-methylacrylamide], the IC50 is 0.0002 µM.

As to `CNC(=O)/C=C/c1cc(O)c(-c2ccc(N3CCC(N)CC3)nn2)cc1F` [SMSM 17, (E)-3-(4-(6-(4-aminopiperidin-1-yl)pyridazin-3-yl)-2-fluoro-5-hydroxyphenyl)-N-methylacrylamide], the IC50 came out at 0.0003 µM.

Regarding `CNC(=O)/C=C/c1ccc(-c2ccc(N3CCC(N)CC3)nn2)c(O)c1` [SMSM 18, (E)-3-(4-(6-(4-aminopiperidin-1-yl)pyridazin-3-yl)-3-hydroxyphenyl)-N-methylacrylamide], the IC50 is > 1 µM. With `CN(C)C(=O)/C=C/c1ccc(-c2ccc(O[C@@H]3C[C@H]4CCC[C@@H](C3)N4)nn2)c(O)c1` [SMSM 19] the figure was > 1 µM. In turn, `CNC(=O)/C=C/c1ccc(-c2ccc(O[C@@H]3C[C@H]4CCC[C@@H](C3)N4)nn2)c(O)c1` [SMSM 20, (E)-3-(4-(6-(((1R,3s,5S)-9-azabicyclo[3.3.1]nonan-3-yl)ypoxy)pyridazin-3-yl)-3-hydroxyphenyl)-N-methylacrylamide] showed an IC50 of 0.793 µM. With `CNC(=O)/C=C/c1ccc(-c2ccc(O[C@H]3C[C@H]4C[C@@H]3CN4)nn2)c(O)c1` [SMSM 21] the figure was 0.369 µM. `CNC(=O)/C=C/c1ccc(-c2ccc(O[C@@H]3C[C@@H]4C[C@H]3CN4)nn2)c(O)c1` [SMSM 22, (E)-3-(4-(6-(((1S,4S,5R)-2-azabicyclo[2.2.1]heptan-5-yl)oxy)pyridazin-3-yl)-3-hydroxyphenyl)-N-methylacrylamide] displayed an IC50 of 0.33 µM. The IC50 values of the last two compounds are within 1.5-fold of each other. For `CNC(=O)/C=C/c1ccc(-c2ccc(S[C@@H]3C[C@H]4CC[C@@H](C3)N4)nn2)c(O)c1` [SMSM 23, (E)-3-(4-(6-(((1R,3s,5S)-8-azabicyclo[3.2.1]octan-3-yl)thio)pyridazin-3-yl)-3-hydroxyphenyl)-N-methylacrylamide], inhibition was half-maximal at 0.201 µM (IC50).

The values above are taken from patent US11530207B2, “Compounds for the treatment of cancer” (SKYHAWK THERAPEUTICS, INC., priority 2018, dated 2022).
